The results in this text go back to ChEMBL document CHEMBL4610070, “Talauxins: Hybrid Phenalenone Dimers from Talaromyces stipitatus” (J Nat Prod, 2020).

pIC50: −log10 of the molar value. Values after ≈ are worked out from the molar mass of the structure shown. Active and inactive are the calls of the source.

For test [1], the system named is Bacillus subtilis. The test can be described thus: Antibacterial activity against Bacillus subtilis ATCC 6633 assessed as reduction in microbial growth up to 100 ug/ml after incubated for 48 hrs by resazurin dye based assay. The test is classed as functional, organism-based.
The subject of test [2] is Escherichia coli. The experiment in a line: Antibacterial activity against Escherichia coli ATCC 25922 assessed as reduction in microbial growth up to 100 ug/ml after incubated for 48 hrs by resazurin dye based assay. The test is classed as functional, organism-based. For orientation: Resazurin is reduced to fluorescent resorufin, in cell work by metabolically active cells.

The species named for a further test is Mus musculus. The experiment in a line: Antiproliferative activity against mouse NS1 cells assessed as reduction in cell viability up to 100 ug/ml after 48 hrs by resazurin dye based assay. The test is classed as functional.
The subject of test [3] is Candida albicans. The experiment in a line: Antifungal activity against Candida albicans ATCC 10231 assessed as reduction in microbial growth up to 100 ug/ml after incubated for 48 hrs by bromocresol green dye based assay. The test is classed as functional, organism-based.
The test system of test [4] is Saccharomyces cerevisiae. The experiment in a line: Antifungal activity against Saccharomyces cerevisiae ATCC 9763 assessed as reduction in microbial growth up to 100 ug/ml after incubated for 48 hrs by bromocresol green dye based assay. The test is classed as functional, organism-based.
Test [5] has as its system Escherichia coli. The experiment in a line: Antibacterial activity against Escherichia coli ATCC 25922 assessed as reduction in microbial growth after incubated for 48 hrs by resazurin dye based assay. The test is classed as functional, organism-based.
The subject of test [6] is Bacillus subtilis. The experiment in a line: Antibacterial activity against Bacillus subtilis ATCC 6633 assessed as reduction in microbial growth after incubated for 48 hrs by resazurin dye based assay. The test is classed as functional, organism-based. Conditions: ATCC 6633, 48 h.
For test [7], the system named is Saccharomyces cerevisiae. The experiment in a line: Antifungal activity against Saccharomyces cerevisiae ATCC 9763 assessed as reduction in microbial growth after incubated for 48 hrs by bromocresol green dye based assay. The test is classed as functional, organism-based. The conditions noted are these: ATCC 9763, 48 h.
Test [8] concerns Candida albicans. The experiment in a line: Antifungal activity against Candida albicans ATCC 10231 assessed as reduction in microbial growth after incubated for 48 hrs by bromocresol green dye based assay. The test is classed as functional, organism-based.
Test [9] in a line: Antiproliferative activity against mouse NS1 cells assessed as reduction in cell viability after 48 hrs by resazurin dye based assay. The test is classed as functional. The conditions noted are these: for MIC: 48 h; for pIC50: NS1, 48 h.

Regarding `CO[C@@]12c3c(C)cc(O)c4c(=O)n([C@@H](CCC(=O)O)C(=O)O)cc(c34)C(=O)[C@@H]1[C@]13COC(=O)c4c(O)cc(C)c(c41)C(=O)[C@H]2[C@@H]3OC(C)=O`, the result in the test on Bacillus subtilis [1], with Escherichia coli [2], in the test filed under Mus musculus, in the test with Candida albicans [3] and with Saccharomyces cerevisiae [4] was inactive.
Consider `CC[C@H](C)[C@@H](C(=O)O)n1cc2c3c(c(C)cc(O)c3c1=O)[C@]1(OC)[C@H](C2=O)[C@]23COC(=O)c4c(O)cc(C)c(c42)C(=O)[C@H]1[C@@H]3OC(C)=O`, for which the result with Bacillus subtilis [1], in the test with Escherichia coli [2], in the test filed under Mus musculus, in the test on Candida albicans [3] and with Saccharomyces cerevisiae [4] was inactive.
As to `CO[C@@]12c3c(C)cc(O)c4c(=O)n([C@H](C(=O)O)C(C)C)cc(c34)C(=O)[C@@H]1[C@]13COC(=O)c4c(O)cc(C)c(c41)C(=O)[C@H]2[C@@H]3OC(C)=O`, the outcome in the test on Bacillus subtilis [1], in the test on Escherichia coli [2], in the test listed under Mus musculus, in the test on Candida albicans [3] and with Saccharomyces cerevisiae [4] was inactive.
Take `Cc1cc(O)c2c3c1C(=O)[C@@H]1C4=C(C(=O)c5cn([C@H](C(=O)O)C(C)C)c(=O)c6c(O)cc(C)c4c56)[C@@]3(COC2=O)[C@H]1O`: the result in the test with Bacillus subtilis [1], in the test on Escherichia coli [2], in the test filed under Mus musculus, in the test with Candida albicans [3] and in the test on Saccharomyces cerevisiae [4] was inactive.
Turning to `CO[C@@]12c3c(C)cc(O)c4c(=O)n([C@@H](CC(C)C)C(=O)O)cc(c34)C(=O)[C@@H]1[C@]13COC(=O)c4c(O)cc(C)c(c41)C(=O)[C@H]2[C@@H]3OC(C)=O`, the result in the test on Bacillus subtilis [1], with Escherichia coli [2], in the test filed under Mus musculus, in the test on Candida albicans [3] and in the test on Saccharomyces cerevisiae [4] was inactive.
A word on the pIC50: it is the IC50 on a negative log10 scale, so that one unit is a factor of ten. With `CC1(C)S[C@@H]2[C@H](NC(=O)[C@H](N)c3ccccc3)C(=O)N2[C@H]1C(=O)O` [AMPICILLIN], the IC50 result in the test with Escherichia coli [5] is on record as “Not Active”. Moreover, in the test on Bacillus subtilis [6], the pIC50 was 6.05.
As usually defined, the MIC is the smallest concentration in the dilution series that meets the test's criterion for growth inhibition. For `CO[C@@]12c3c(C)cc(O)c4c(=O)occ(c34)C(=O)[C@@H]1[C@]13COC(=O)c4c(O)cc(C)c(c41)C(=O)[C@H]2[C@@H]3OC(C)=O`, the IC50 entry in the test on Escherichia coli [5] and in the test on Candida albicans [8] was “Not Active” in each case. Moreover, the figures for the negative-log IC50 (pIC50) (with Bacillus subtilis [6]; with Saccharomyces cerevisiae [7]; in test [9]) were less than 3.70, less than 3.70 and 3.85, respectively. For the same molecule, in test [9], the minimum inhibitory concentration (MIC) was found to be 100 µg/mL (≈ 183 µM).
For the molecule `O=c1[nH]cc(F)c(=O)[nH]1` [FLUOROURACIL], the pIC50 in test [9] was 5.34.
With `CO[C@@]12c3c(C)cc(O)c4c(=O)n([C@@H](CCC(N)=O)C(=O)O)cc(c34)C(=O)[C@@H]1[C@]13COC(=O)c4c(O)cc(C)c(c41)C(=O)[C@H]2[C@@H]3OC(C)=O`, the outcome in the test on Bacillus subtilis [1], in the test with Escherichia coli [2], in the test filed under Mus musculus, with Candida albicans [3] and with Saccharomyces cerevisiae [4] was inactive.
As for `CO[C@@]12c3c(C)cc(O)c4c(=O)n([C@H](CC(C)C)C(=O)O)cc(c34)C(=O)[C@@H]1[C@]13COC(=O)c4c(O)cc(C)c(c41)C(=O)[C@H]2[C@@H]3OC(C)=O`, the result in the test with Bacillus subtilis [1], with Escherichia coli [2], in the test filed under Mus musculus, with Candida albicans [3] and with Saccharomyces cerevisiae [4] was inactive.
In the case of `CC(=O)CC1(O)C(=O)c2c(O)cc(C)c3c(O)cc(O)c(c23)C1=O` (stereo not drawn), the outcome in the test with Bacillus subtilis [1], in the test with Escherichia coli [2], in the test filed under Mus musculus, in the test with Candida albicans [3] and in the test on Saccharomyces cerevisiae [4] was inactive.
Consider `Clc1ccccc1C(c1ccccc1)(c1ccccc1)n1ccnc1` [CLOTRIMAZOLE], for which, in the test on Saccharomyces cerevisiae [7], the pIC50 was 6.40. Further, the IC50 entry with Candida albicans [8] was “Not Active”.
`CC[C@@H](C)[C@H](C(=O)O)n1cc2c3c(c(C)cc(O)c3c1=O)[C@]1(OC)[C@H](C2=O)[C@]23COC(=O)c4c(O)cc(C)c(c42)C(=O)[C@H]1[C@@H]3OC(C)=O`: the outcome with Bacillus subtilis [1], with Escherichia coli [2], in the test filed under Mus musculus, in the test on Candida albicans [3] and with Saccharomyces cerevisiae [4] was inactive.
With `Cc1cc(O)c2c3c(c(O)cc(O)c13)C(=O)C(O)=C2O`, the IC50 result in the test with Escherichia coli [5] and in the test on Candida albicans [8] was “Not Active” in each case. In addition, the pIC50 is 3.58 in the test on Bacillus subtilis [6], less than 3.40 with Saccharomyces cerevisiae [7] and 4.15 in test [9]. Besides, the MIC in the test on Bacillus subtilis [6] came out at 100 µg/mL; in test [9], 25 µg/mL (≈ 91.2 µM).
